For 30 compounds, IC50 results are on record in patent US7803801B2, “Aminopyridine compounds having Syk inhibitory activity” (Japan Tobacco, Inc., priority 2005, dated 2010).

Counter-ions that a name gives are not always drawn.

The target of this assay is GST-Syk Full Protein (human) (Homo sapiens, UniProt P43405). The assay can be described thus: Syk kinase inhibition test (HTRF method). It counts as biochemical. As to conditions: Tables 1-x, compounds A; read-out: sykHTRF ave IC50. On the procedure:
Syk Kinase Inhibition Test (HTRF Method)
After the compounds were serially diluted with dimethylsulfoxide (DMSO), 10 μL of those 10-fold diluted with kinase buffer (20 mM HEPES pH 7.0, 10 mM MgCl2, 50 mM NaCl, 1 mM 2-ME, 0.05% BSA) was added to opti-plate HTRF-96 (Packard) (final DMSO concentration: 2%). 20 μL of a substrate solution (kinase buffer as mentioned above containing Syk Specific-Peptide Substrate Biot-EDPDYEWPSA-NH2 (Peptide Laboratory) 625 nM, 250 μM ATP (SIGMA) was added (final substrate concentration 250 nM, 100 μM ATP), and further 20 μL of an enzyme solution (kinase buffer as mentioned above containing GST-Syk Full Protein (human) 16 nM) (final concentration 6.4 nM) was added and the mixture was immediately stirred with a plate shaker to start enzyme reaction. After reacted at room temperature (20 to 25° C.) for 30 minutes, the enzyme reaction was terminated by adding 100 μL/well of a buffer for terminating and detecting the reaction (30 mM HEPES pH 7.0, 150 mM KF, 0.15% BSA, 0.075% Tween-20, 75 mM EDTA) containing HTRF reagent (5 μg/ml XL665-Streptavidin (CIS bio), 170 ng/ml Eu(K)-anti-PhosphoTyrosin, PT-66 (CIS bio)) (final concentration 20 mM HEPES pH 7.0, 100 mM KF, 0.1% BSA, 0.05% Tween-20, 50 mM EDTA). After allowed to stand still at room temperature for 1 hour, inhibitory effect of a compound against Syk kinase enzymatic activity was evaluated by measuring 665/620 fluorescence ratio to excitation light at 337 nm by ARVO (Wallac).
With `Cc1ccnc(Nc2cccc(-c3cnc(N4CCc5cc(CC(=O)O)ccc5C4)s3)n2)c1` [Compound A-641, (2-{5-[6-(4-methylpyridin-2-ylamino)pyridin-2-yl]thiazol-2-yl}-1,2,3,4-tetrahydroisoquinolin-6-yl)acetic acid], the IC50 is less than 0.1 µM.

Take `Cc1ccnc(Nc2cccc(-c3cnc(N4CCc5c(CCC(=O)O)cccc5C4)s3)n2)c1` [Compound A-642, 3-(2-{5-[6-(4-methylpyridin-2-ylamino)pyridin-2-yl]thiazol-2-yl}-1,2,3,4-tetrahydroisoquinolin-5-yl)propionic acid]: the IC50 is less than 0.1 µM.

Turning to `Cc1ccnc(Nc2cccc(-c3cnc(N(CCCCC(=O)O)C(C)C)s3)n2)c1` [Compound A-643, 5-(N-isopropyl-N-{5-[6-(4-methylpyridin-2-ylamino)pyridin-2-yl]thiazol-2-yl}amino)pentanoic acid], the IC50 was less than 0.1 µM.

On to `Cc1ccnc(Nc2cccc(-c3cnc(NCCCCC(=O)O)s3)n2)c1` [Compound A-644, 5-{5-[6-(4-methylpyridin-2-ylamino)pyridin-2-yl]thiazol-2-ylamino}pentanoic acid], for which the IC50 is less than 0.1 µM.

For the compound `Cc1ccnc(Nc2cccc(-c3cnc(N(C)CCCCCC(=O)O)s3)n2)c1` [Compound A-645, 6-(N-methyl-N-{5-[6-(4-methylpyridin-2-ylamino)pyridin-2-yl]thiazol-2-yl}amino)hexanoic acid dihydrochloride], the IC50 is less than 0.1 µM.

Turning to `Cc1ccnc(Nc2cccc(-c3cnc(N4CCC[C@H]4C(=O)NS(C)(=O)=O)s3)n2)c1` [Compound A-646], the 50% inhibitory concentration (IC50) lay in the range of 0.1 to 1 µM.

For the compound `Cc1ccnc(Nc2cccc(-c3cnc(N(C)CCC/C=C(\F)C(=O)O)s3)n2)c1` [Compound A-647, (Z)-2-fluoro-6-(N-methyl-N-{5-[6-(4-methylpyridin-2-ylamino)pyridin-2-yl]thiazol-2-yl}amino)hex-2-enoic acid dihydrochloride], the IC50 was less than 0.1 µM.

In the case of `O=C(O)CC1CC2CCC(C1)N2c1ncc(-c2cccc(Nc3cc(C(F)(F)F)ccn3)n2)s1` (stereo not drawn) [Compound A-648, (8-{5-[6-(4-trifluoromethylpyridin-2-ylamino)pyridin-2-yl]thiazol-2-yl}-8-azabicyclo[3.2.1]oct-3-yl)acetic acid], the 50% inhibitory concentration (IC50) is less than 0.1 µM.

For `Cc1ccnc(Nc2cccc(-c3cnc(N4C5CCC4CC(CC(=O)O)C5)s3)n2)c1` (stereo not drawn) [Compound A-649, (8-{5-[6-(4-methylpyridin-2-ylamino)pyridin-2-yl]thiazol-2-yl}-8-azabicyclo[3.2.1]oct-3-yl)acetic acid], the IC50 was less than 0.1 µM.

`N#Cc1ccnc(Nc2cccc(-c3cnc(N4CCC(CC(=O)O)CC4)s3)n2)c1` [Compound A-650, (1-{5-[6-(4-cyanopyridin-2-ylamino)pyridin-2-yl]thiazol-2-yl}piperidin-4-yl)acetic acid dihydrochloride]: the IC50 was less than 0.1 µM.

As for `CN(Cc1ccc(CC(=O)O)cc1)c1ncc(-c2cccc(Nc3cc(C(F)(F)F)ccn3)n2)s1` [Compound A-651, {4-[(N-methyl-N-{5-[6-(4-trifluoromethylpyridin-2-ylamino)pyridin-2-yl]thiazol-2-yl}amino)methyl]phenyl}acetic acid], the IC50 is less than 0.1 µM.

In the case of `Cc1ccnc(Nc2cccc(-c3cnc(N4CCC(CC(=O)O)CC4)s3)n2)c1` [Compound A-653, (1-{5-[6-(4-methylpyridin-2-ylamino)pyridin-2-yl]thiazol-2-yl}piperidin-4-yl)acetic acid], the IC50 was less than 0.1 µM.

In the case of `CN(c1ncc(-c2cccc(Nc3cc(C(F)(F)F)ccn3)n2)s1)C(C)(C)c1ccc(C(=O)O)cc1` [Compound A-654, 4-[1-methyl-1-(N-methyl-N-{5-[6-(4-trifluoromethylpyridin-2-ylamino)pyridin-2-yl]thiazol-2-yl}amino)ethyl]benzoic acid], the 50% inhibitory concentration (IC50) is less than 0.1 µM.

On to `CC(=CC(=O)O)CCCN(C)c1ncc(-c2cccc(Nc3cc(C(F)(F)F)ccn3)n2)s1` [Compound A-655, 3-methyl-6-(N-methyl-N-{5-[6-(4-trifluoromethylpyridin-2-ylamino)pyridin-2-yl]thiazol-2-yl}amino)hex-2-enoic acid dihydrochloride], for which the half-inhibitory concentration (IC50) is less than 0.1 µM.

Turning to `CC(=CC(=O)O)CCCN(C)c1ncc(-c2cccc(Nc3cc(C)ccn3)n2)s1` [Compound A-656, 3-methyl-6-(N-methyl-N-{5-[6-(4-methylpyridin-2-ylamino)pyridin-2-yl]thiazol-2-yl}amino)hex-2-enoic acid dihydrochloride], the IC50 was less than 0.1 µM.

In the case of `CN(CCC/C=C/C(=O)O)c1ncc(-c2cccc(Nc3cc(C(F)(F)F)ccn3)n2)s1` [Compound A-657, (E)-6-(N-methyl-N-{5-[6-(4-trifluoromethylpyridin-2-ylamino)pyridin-2-yl]thiazol-2-yl}amino)hex-2-enoic acid dihydrochloride], the IC50 is less than 0.1 µM.

`Cc1ccnc(Nc2cccc(-c3cnc(N4CCC[C@H]4C(=O)NCCO)s3)n2)c1` [Compound A-658, N-(2-hydroxyethyl)-(S)-1-{5-[6-(4-methylpyridin-2-ylamino)pyridin-2-yl]thiazol-2-yl}pyrrolidine-2-carboxamide]: the IC50 was less than 0.1 µM.

For the compound `Cc1ccnc(Nc2cccc(-c3cnc(N4CCC[C@H]4C(=O)N4CCC(O)CC4)s3)n2)c1` [Compound A-659], the IC50 was in the range of 0.1 to 1 µM.

For `Cc1ccnc(Nc2cccc(-c3cnc(N4CCC[C@H]4C(=O)NCC(C)(C)C)s3)n2)c1` [Compound A-660], the concentration for half-maximal inhibition (IC50) was in the range of 0.1 to 1 µM.

In the case of `Cc1ccnc(Nc2cccc(-c3cnc(N4CCC(NC(=O)C5CCOCC5)CC4)s3)n2)c1` [Compound A-661], the IC50 lay in the range of 0.1 to 1 µM.

For the compound `Cc1ccnc(Nc2cccc(-c3cnc(N4CCC(NC(=O)C5CCC(O)CC5)CC4)s3)n2)c1` (stereo not drawn) [Compound A-662], the IC50 fell in the range of 0.1 to 1 µM.

`Cc1ccnc(Nc2cccc(-c3cnc(N(CC(N)=O)C(C)C)s3)n2)c1` [Compound A-663, 2-(N-isopropyl-N-{5-[6-(4-methylpyridin-2-ylamino)pyridin-2-yl]thiazol-2-yl}amino)acetamide]: the IC50 was less than 0.1 µM.

With `Cc1ccnc(Nc2cccc(-c3cnc(CN4CCC[C@H]4C(=O)N(C)C)s3)n2)c1` [Compound A-664], the IC50 was 0.1 to 1 µM.

Consider `Cc1ccnc(Nc2cccc(-c3cnc(N(CC(=O)NCC(F)(F)F)C4CCCCC4)s3)n2)c1` [Compound A-665], for which the IC50 lay in the range of 0.1 to 1 µM.

As for `CNC(=O)[C@@H]1CCCN1Cc1ncc(-c2cccc(Nc3cc(C)ccn3)n2)s1` [Compound A-666], the IC50 lay in the range of 0.1 to 1 µM.

For the compound `Cc1ccnc(Nc2cccc(-c3cnc(CN4CCC[C@H]4C(N)=O)s3)n2)c1` [Compound A-667], the IC50 was in the range of 0.1 to 1 µM.

As to `Cc1ccnc(Nc2cccc(-c3cnc(N(C)C(C(N)=O)C(C)C)s3)n2)c1` (stereo not drawn) [Compound A-668, 3-methyl-2-(N-methyl-N-{5-[6-(4-methylpyridin-2-ylamino)pyridin-2-yl]thiazol-2-yl}amino)butylamide], the IC50 is less than 0.1 µM.

On to `Cc1ccnc(Nc2cccc(-c3cnc(N(CC(N)=O)C4CCCCC4)s3)n2)c1` [Compound A-669], for which the half-inhibitory concentration (IC50) lay within 0.1 to 1 µM.

For the compound `Cc1ccnc(Nc2cccc(-c3cnc(N4CCC(CC(C)(C)O)CC4)s3)n2)c1` [Compound A-670], the IC50 lay within 0.1 to 1 µM.

For the compound `Cc1ccnc(Nc2cccc(-c3cnc(N(C)C4CCN(C(=O)C(C)(C)C)CC4)s3)n2)c1` [Compound A-671], the IC50 was in the range of 0.1 to 1 µM.

Usually IC50 stands for the concentration that gives 50% inhibition.
